Assay results published in paper doi:10.1101/2025.05.14.653428v1 (bioRxiv, 2025).
Where a SMILES comes first, the peptide text is derived from it.

What was measured:
TGF-β in hepatocytes = experiment: TGF-β mRNA and protein in cultured hepatocytes; format: cell-based, murine; details: hepatocytes on vitronectin, 24 hours
pFAK in hepatocytes = pFAK in hepatocytes by western blotting; format: cell-based, murine; details: suspension without FCS 2 hours, 50μg/mL for 30 minutes
[1] = Evaluation of toxicity in vivo; design: species or system mice; details: 10 days intraperitoneal, 1 mg/mouse/day, N=10/group
hepatocytes = format: cell-based, murine; details: 50μg/mL, 24 hours, flow cytometry
[2] = GLQGE detection in plasma after injection; format: in vivo, mice; details: for time to enter the circulation / time until cleared from the bloodstream: LC-MS/MS; for Tmax: mouse
Huh-7 hepatoma cell line = experiment: TGF-β protein in Huh-7 cells; format: cell-based; details: cultured on vitronectin, 50μg/mL, 24 hours

Compound | total TGF-β protein in hepatocytes (TGF-β in hepatocytes; 50μg/mL, MLEC bioassay) | TGF-β mRNA expression in cultured hepatocytes compared to untreated control (TGF-β in hepatocytes; 50μg/mL, qPCR) | pFAK in hepatocytes from β3 global knockout mice (pFAK in hepatocytes) | pFAK in hepatocytes (pFAK in hepatocytes; western blotting) | blood values of kidney function [1] | blood values of liver function [1] | blood values of pancreas function [1] | complete blood count [1] | hepatocyte apoptosis (annexinv-propidium-iodide staining) (hepatocytes) | hepatocyte proliferation (ki67 staining) (hepatocytes) | time to enter the circulation ([2]; i.p. injection of 0.5 mg GLQGE) [min] | time until cleared from the bloodstream ([2]; i.p. injection of 0.5 mg GLQGE) [min] | Tmax ([2]; ip, 0.5 mg/mouse) [min] | Tmax ([2]; sc, 1 mg/mouse) [min] | time to enter the circulation ([2]; s.c. injection of 1 mg GLQGE) [min] | time until cleared from the bloodstream ([2]; s.c. injection of 1 mg GLQGE) [min] | TGF-β mRNA expression in wildtype hepatocytes after FAK inhibition (TGF-β in hepatocytes; 5μM) | TGF-β mRNA in cultured hepatocytes compared to GLOGE (TGF-β in hepatocytes; 50μg/mL, qPCR) | TGF-β protein in Huh-7 (Huh-7 hepatoma cell line)
CC(C)C[C@@H]1NC(=O)CNC(=O)[C@H](CCC(=O)O)NC(=O)CNC(=O)[C@H](CCC(N)=O)NC1=O [GLQGE] (cyclo(EGLQG)) | suppressed | diminished | increase | increased | no significant abnormalities | no significant abnormalities | no significant abnormalities | no significant abnormalities | did not affect | did not affect | ≤ 5 | ≤ 120 | 15 | 15 | ≤ 5 | ≤ 120 |  |  | 
CS(=O)(=O)c1cccc(CNc2nc(Nc3ccc4c(c3)CCC(=O)N4)ncc2C(F)(F)F)c1 [PF573228, reference compound] |  |  |  |  |  |  |  |  |  |  |  |  |  |  |  |  | rise |  | 
GLNGE (head to tail) |  |  |  |  | no significant abnormalities | no significant abnormalities | no significant abnormalities | no significant abnormalities |  |  |  |  |  |  |  |  |  | diminished | reduced
GLOGE (head to tail) |  |  |  |  | no significant abnormalities | no significant abnormalities | no significant abnormalities | no significant abnormalities |  |  |  |  |  |  |  |  |  |  | 
